ChEMBL document CHEMBL4831557, “Parthenolide Derivatives as PKM2 Activators Showing Potential in Colorectal Cancer” (J Med Chem, 2021)
pIC50: −log10 of the molar value. Active and inactive are the calls of the source. No cut-off for these calls is given here.

Columns and labels:
[1] = test system: HT-29; assay: Antitumor activity against human HT-29 cells xenografted in BALB/c mouse assessed as reduction in tumor growth at 15 to 30 mg/kg, ip administered once every 2 days for 2 weeks by vernier caliper method; assay type: functional, organism-based; details: dose 15-30 mg/kg
[2] = Selectivity index, ratio of IC50 for human NCM460 cells to IC50 for human HT-29 cells; assay type: toxicity; details: NCM460 cells versus HT-29 cells, read-out: Ratio IC50
[3] = test system: HT-29; assay: Antitumor activity against human HT-29 cells xenografted in BALB/c mouse assessed as reduction in tumor weight at 15 to 30 mg/kg, ip administered once every two days for 2 weeks by vernier caliper method; assay type: functional, organism-based; details: dose 15-30 mg/kg
[4] = biological target: T1, Pyruvate kinase PKM (Homo sapiens, UniProt P14618); assay: Activation of PKM2 in human HT-29 cells assessed as decrease in lactic acid production; assay type: cell-based; details: filed as activator
Target sequence in this assay (P14618 2-531 limits assumed): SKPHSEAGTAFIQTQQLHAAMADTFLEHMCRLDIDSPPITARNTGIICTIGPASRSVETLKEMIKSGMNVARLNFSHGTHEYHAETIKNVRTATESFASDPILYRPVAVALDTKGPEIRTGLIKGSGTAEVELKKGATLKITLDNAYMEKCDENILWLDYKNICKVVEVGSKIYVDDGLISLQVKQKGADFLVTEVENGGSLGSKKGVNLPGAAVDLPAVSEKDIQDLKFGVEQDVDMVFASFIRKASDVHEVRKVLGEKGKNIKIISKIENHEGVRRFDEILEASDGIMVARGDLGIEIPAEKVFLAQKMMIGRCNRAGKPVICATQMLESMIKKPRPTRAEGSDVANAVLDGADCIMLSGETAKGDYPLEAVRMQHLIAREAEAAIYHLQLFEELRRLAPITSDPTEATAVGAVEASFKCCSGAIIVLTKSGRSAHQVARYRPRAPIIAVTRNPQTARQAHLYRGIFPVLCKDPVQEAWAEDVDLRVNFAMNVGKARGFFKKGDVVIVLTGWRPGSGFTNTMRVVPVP

[5] = biological target: T1, Pyruvate kinase PKM; assay: Activation of human PKM2-C424A expressed in Escherichia coli BL21 (DE3) assessed as increase in PKM2-C424A tetramer formation by chemical cross-linking assay
Target sequence in this assay (P14618 2-531 limits assumed): as above

[6] = test system: SW480; assay: Antimigratory activity against human SW480 cells; assay type: functional, cell-based
[7] = test system: SW480; assay: Antiproliferative activity against human SW480 cells at 0.1 to 0.4 uM measured after 48 hrs by EdU staining based confocal microscopic analysis; assay type: functional, cell-based; details: dose 0.1-0.4 µM
[8] = test system: HT-29; assay: Induction of apoptosis in human HT-29 cells assessed as decrease in PARP expression at 0.45 to 1.8 uM after 48 hrs by Western blotting analysis; assay type: functional, cell-based; details: dose 0.45-1.8 µM
[9] = test system: HepG2; assay: Cytotoxicity against human HepG2 cells assessed as reduction in cell viability incubated for 48 hrs by MTT assay; assay type: functional, cell-based; details: HepG2, 48 h
[10] = biological target: T1, Pyruvate kinase PKM; assay: Inhibition of PKM2/STAT3 in human HT-29 cells assessed as reduction in bcl-xl protein expression at 0.45 to 1.8 uM incubated for 48 hrs by Western blot analysis; assay type: cell-based; details: dose 0.45-1.8 µM
Target sequence in this assay (P14618 2-531 limits assumed): as above

[11] = biological target: T1, Pyruvate kinase PKM; assay: Activation of recombinant human PKM2 incubated 30 mins by fluorescence microplate reader analysis
Target sequence in this assay (P14618 whole entry): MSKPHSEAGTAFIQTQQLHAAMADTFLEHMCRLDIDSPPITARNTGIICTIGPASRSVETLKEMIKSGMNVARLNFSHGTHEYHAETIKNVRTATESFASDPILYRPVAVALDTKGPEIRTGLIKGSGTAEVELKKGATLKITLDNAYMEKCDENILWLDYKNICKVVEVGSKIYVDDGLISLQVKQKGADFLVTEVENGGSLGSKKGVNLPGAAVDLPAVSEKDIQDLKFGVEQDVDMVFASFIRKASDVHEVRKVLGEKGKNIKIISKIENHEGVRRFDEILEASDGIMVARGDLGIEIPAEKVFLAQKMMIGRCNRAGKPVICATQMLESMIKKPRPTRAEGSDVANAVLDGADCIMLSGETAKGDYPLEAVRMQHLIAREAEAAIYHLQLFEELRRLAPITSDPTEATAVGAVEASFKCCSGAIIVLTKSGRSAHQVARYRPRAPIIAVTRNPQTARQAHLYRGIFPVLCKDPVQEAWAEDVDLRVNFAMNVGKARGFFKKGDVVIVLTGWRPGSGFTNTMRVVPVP

[12] = biological target: T1, Pyruvate kinase PKM; assay: Activation of PKM2 in human HT-29 cells assessed as increase in PKM2 tetramer formation by dynamic laser light scattering analysis; assay type: cell-based; details: filed as activator
Target sequence in this assay (P14618 2-531 limits assumed): as the sequence (P14618 2-531 limits assumed) above

[13] = biological target: T1, Pyruvate kinase PKM; assay: Activation of PKM2 in human HT-29 cells assessed as increase in cell basal respiration; assay type: cell-based; details: filed as activator
Target sequence in this assay (P14618 2-531 limits assumed): as above

[14] = test system: MDA-MB-231; assay: Cytotoxicity against human MDA-MB-231 cells assessed as reduction in cell viability incubated for 48 hrs by MTT assay; assay type: functional, cell-based; details: MDA-MB-231, 48 h
[15] = biological target: T1, Pyruvate kinase PKM; assay: Inhibition of PKM2/STAT3 in human HT-29 cells assessed as decrease in phosphorylated STAT3 level at 0.45 to 1.8 uM after 48 hrs by Western blot analysis; assay type: cell-based; details: dose 0.45-1.8 µM
Target sequence in this assay (P14618 2-531 limits assumed): as above

[16] = test system: SW480; assay: Effect on mitochondrial membrane potential in human SW480 cells at 0.2 to 0.6 uM measured after 48 hrs by JC-1 staining based assay; assay type: functional, cell-based; details: dose 0.2-0.6 µM
[17] = biological target: T1, Pyruvate kinase PKM; assay: Activation of recombinant human PKM2 at 10 uM incubated 30 mins by fluorescence microplate reader analysis; details: filed as activator
[18] = test system: HT-29; assay: Cytotoxicity against human HT-29 cells assessed as reduction in cell viability incubated for 48 hrs by MTT assay; assay type: functional, cell-based; details: HT-29, 48 h
[19] = test system: HT-29; assay: Induction of apoptosis in human HT-29 cells assessed as increase in cleaved caspase-3 expression at 0.45 to 1.8 uM after 48 hrs by Western blotting analysis; assay type: functional, cell-based; details: dose 0.45-1.8 µM
[20] = test system: HCT-116; assay: Cytotoxicity against human HCT-116 cells assessed as reduction in cell viability incubated for 48 hrs by MTT assay; assay type: functional, cell-based; details: HCT-116, 48 h
[21] = test system: HT-29; assay: Induction of apoptosis in human HT-29 cells assessed as increase in cleaved PARP expression at 0.45 to 1.8 uM after 48 hrs by Western blotting analysis; assay type: functional, cell-based; details: dose 0.45-1.8 µM
[22] = test system: HT-29; assay: Induction of apoptosis in human HT-29 cells assessed as decrease in caspase-3 expression at 0.45 to 1.8 uM after 48 hrs by Western blotting analysis; assay type: functional, cell-based; details: dose 0.45-1.8 µM
[23] = biological target: T1, Pyruvate kinase PKM; assay: Inhibition of PKM2/STAT3 in human HT-29 cells assessed as reduction in cyclin-D1 protein expression at 0.45 to 1.8 uM incubated for 48 hrs by Western blot analysis; assay type: cell-based; details: dose 0.45-1.8 µM
[24] = biological target: T1, Pyruvate kinase PKM; assay: Inhibition of PKM2/STAT3 in human HT-29 cells assessed as decrease in total STAT3 level at 0.45 to 1.8 uM after 48 hrs by Western blot analysis; assay type: cell-based; details: dose 0.45-1.8 µM
[25] = test system: NCM460; assay: Cytotoxicity against human NCM460 cells assessed as reduction in cell viability incubated for 48 hrs by MTT assay; assay type: cell-based; details: NCM460, 48 h
[26] = test system: HT-29; assay: Inhibition of colony formation in human HT-29 cells incubated for 14 days by crystal violet staining based analysis; assay type: functional, cell-based; details: dose 0.15-0.3 µM, time 14.0 day
[27] = test system: SW480; assay: Induction of intracellular ROS production in human SW480 cells at 0.2 to 0.6 uM incubated for 48 hrs by DCFH-DA staining based flow cytometry analysis; assay type: functional, cell-based; details: dose 0.2-0.6 µM
[28] = test system: HT-29; assay: Induction of apoptosis in PKM2 knock down human HT-29 cells at 0.45 to 1.8 uM; assay type: functional, cell-based; details: dose 0.45-1.8 µM
[29] = test system: HT-29; assay: Inhibition of epithelial-mesenchymal transition in human HT-29 cells assessed as change in Snail-2 expression; assay type: functional, cell-based
[30] = biological target: T1, Pyruvate kinase PKM; assay: Activation of PKM2 in human HT-29 cells assessed as decrease in extracellular acidification rate; assay type: cell-based; details: filed as activator
[31] = test system: SW480; assay: Cytotoxicity against human SW480 cells assessed as reduction in cell viability incubated for 48 hrs by MTT assay; assay type: functional, cell-based; details: SW480, 48 h
[32] = Toxicity in BALB/c mouse xenografted with human HT-29 cells assessed as decrease in body weight at 30 mg/kg, ip administered once every 2 days for 2 weeks and monitered every 2 days; assay type: organism-based; details: in vivo, 336 h
[33] = test system: HT-29; assay: Effect on total PKM2 protein expression in nucleus of human HT-29 cells at 0.45 to 1.8 uM after 48 hrs by Western blot analysis; assay type: functional, cell-based; details: dose 0.45-1.8 µM
[34] = test system: HT-29; assay: Effect on mitochondrial membrane potential in human HT-29 cells at 0.45 to 1.8 uM measured after 48 hrs by JC-1 staining based assay; assay type: functional, cell-based; details: dose 0.45-1.8 µM
[35] = biological target: T1, Pyruvate kinase PKM; assay: Activation of PKM2 in human HT-29 cells assessed as increase in PKM2 tetramer formation at 0.6 to 1.2 uM after 48 hrs by Western blot analysis; assay type: cell-based; details: filed as activator, dose 0.6-1.2 µM
[36] = test system: U2OS; assay: Cytotoxicity against human U2OS cells assessed as reduction in cell viability incubated for 48 hrs by MTT assay; assay type: functional, cell-based
[37] = biological target: T1, Pyruvate kinase PKM; assay: Inhibition of PKM2/STAT3 in human HT-29 cells assessed as reduction in C-myc protein expression at 0.45 to 1.8 uM incubated for 48 hrs by Western blot analysis; assay type: cell-based; details: dose 0.45-1.8 µM
[38] = biological target: T1, Pyruvate kinase PKM; assay: Binding affinity to recombinant human PKM2 assessed as covalent adduct formation incubated for 1 hr by LC-MS/MS analysis; details: filed as activator
[39] = Selectivity index, ratio of IC50 for human NCM460 cells to IC50 for human SW480 cells
[40] = test system: HT-29; assay: Antiproliferative activity against human HT-29 cells at 0.25 to 1 uM measured after 48 hrs by EdU staining based confocal microscopic analysis; assay type: functional, cell-based; details: dose 0.25-1 µM

C=C1C(=O)O[C@H]2[C@H]1CC/C(COC(=O)c1ccc3nccc(Br)c3c1)=C/CC[C@@]1(C)O[C@@H]21
Activity [1]: Active | selectivity ratio [2]: 3.06 | Activity [3]: Active | Activity [4]: Active | Activity [5]: inactive | Activity [6]: Active | Activity [7]: Active | Activity [8]: Active | pIC50 [9]: 5.41 | inhibition [10]: Active | AC50 [11]: 0.0863 µM | Activity [12]: Active | Activity [13]: Active | pIC50 [14]: 5.99 | inhibition [15]: Active | Activity [16]: Active | Activity [17]: Active | pIC50 [18]: 6.18 | Activity [19]: Active | pIC50 [20]: 6.00 | Activity [21]: Active | Activity [22]: Active | inhibition [23]: Active | inhibition [24]: Active | pIC50 [25]: 5.69 | inhibition [26]: Dose-Dependent Effect | Activity [27]: Active | Activity [28]: inactive | inhibition [29]: inactive | Activity [30]: Active | pIC50 [31]: 6.66 | Activity [32]: Non-Toxic | Activity [33]: Active | Activity [34]: Active | Activity [35]: Active | pIC50 [36]: 5.75 | inhibition [37]: Active | Activity [38]: Active | Ratio IC50 [39]: 9.18 | Activity [40]: Active
